Twelve compounds from PMC6300282, “Sulphamethazine derivatives as immunomodulating agents: New therapeutic strategies for inflammatory diseases” (PLoS ONE, 2018) can be followed below.

Holding throughout (format): cell-based
Assay [1] has as its system zymosan activated whole blood phagocytes. As to the kind of experiment: Oxidative burst assay (luminol-enhanced chemiluminescence), whole blood. Particulars: human whole blood, serum opsonized zymosan, three doses 1, 10, 100 μg/mL, mean ± SD of three, NA = Not active, read-out: Oxidative Burst Inhibition (IC50) WB. The method, then: Luminol-enhanced chemiluminescence assay was performed, as described by Helfandet al., 1982 [17], with some modifications. Briefly 25 μL of diluted whole blood in HBSS^++ (Hanks Balanced Salt Solution, containing calcium chloride and magnesium chloride) [Sigma, St. Louis, USA] was incubated with 25 μL of three different concentrations of compounds (1, 10, and 100 μg/mL), each in triplicate. Control wells received HBSS^++ and cells, but no compounds. Test was performed in white half area 96-well plates [Costar, NY, USA], which was incubated at 37 °C for 15 minutes in the thermostat chamber of luminometer [Labsystems, Helsinki, Finland]. After incubation, 25 μL of serum opsonized zymosan (SOZ) [Fluka, Buchs, Switzerland] and 25 μL of intracellular reactive oxygen species detecting probe, luminol [Research Organics, Cleveland, OH, USA] were added into each well, except blank wells (containing only HBSS^++). The level of the ROS was recorded in luminometer in term of relative light units (RLU).

Assay [2] has as its system TNF-α production from THP-1 human monocytic leukemia cell line. As to the kind of experiment: TNF-α production (ELISA), LPS stimulated THP-1 cells. As to conditions: Homo sapiens; PMA-differentiated THP-1 cells, 50 ng/mL LPS, 4 hours; three doses 1, 10, 100 μg/mL; mean ± SD of three; read-out: TNF-α Inhibition (IC50). From the text:
RPMI-1640 (R8758, Sigma Aldrich, St. Louis, USA); L-glutamine (25030081, Gibco, California, USA); D-glucose (G8270, Sigma Aldrich, St. Louis, USA); 2-mercaptoethanol (190242, MP Biomedicals, lllkirch, France); sodium pyruvate (11360–070, Gibco, California, USA); FBS (A11-104, PAA Laboratories, Pasching, Austria); HEPES (H3375, Sigma Aldrich, St. Louis, USA); PMA (151864, MP Biomedicals, lllkirch, France); lipopolysaccharide B of E. coli 0111:B4 (LPS) (3922–25, DIFCO Laboratories, USA); 24-well tissue culture plates (CLS3524, Corning, Dublin, USA); Flat bottom 96-well tissue culture plates (CLS3300, Corning, New York, USA). BSA (151429, MP Biomedicals, lllkirch, France); PBS tablets (41620016–4, Bioworld, Dublin, Ireland); Tween 20 (822184, Merck, Damstadt, Germany); Human TNF-α DuoSet ELISA Kit (DY210, R&D Systems, Minneapolis, USA); Human IL-1β DuoSet ELISA Kit (DY201, R&D Systems, Minneapolis, USA); and Human IL-2 DuoSet ELISA Kit (DY202, R&D Systems, Minneapolis, USA); ELISA plate sealers (DY992, R&D Systems, Minneapolis, USA); Clear flat bottom 96-well microplates (DY990, R&D Systems, Minneapolis, USA). Human monocytic leukemia cells THP-1 were obtained from (European Collection of Cell Cultures, UK). The cells were maintained in RPMI-1640 containing 5.5 mmol/L glucose (BioM Laboratories, Chemical Division, Malaysia), 50 μmol/L mercaptoethanol (Merck Damstadt, Germany), 10% FBS (fetal bovine serum), 2 mmol/L; L-glutamine (PAA Laboratories, GmbH, Pasching, Austria). Cells were grown in 75 cc flasks, harvested and 2.5×10^5 cells/mL was then plated in 24-well tissue culture plates. 20 ng/mL of phorbol-12-myristate-13-acetate (PMA), (SERVA, Heidelberg, Germany) was added followed by incubation for 24 hours at 37 °C in 5% CO2to convert them into macrophage like cell. Cells were then stimulated with E. coli lipopolysacchride B, (DIFCO Laboratories, michigon, USA) at a final concentration of 50 ng/mL and treated with compounds at three different concentration (1, 10 and 100 μg/mL) and then incubated for 4 hours at 37 °C in 5% CO2. The supernatants collected were analyzed for the level of TNF -α using the human TNF-α Duo Set ELISA (R&D Systems, Minneapolis, USA), and according to manufacturer’s instructions.
A general note: An ELISA detects its analyte on a solid surface through an enzyme-linked reagent.

The subject of assay [3] is Bacillus subtilis (ATCC 6633). As to the kind of experiment: Microplate Alamar Blue Assay, Bacillus subtilis. Particulars: ATCC6633, 200 μg/mL, NI = No inhibition, read-out: Percentage (%) Inhibition, Bacillus subtilis.
The subject of assay [4] is Staphylococcus aureus (ATCC 25923). As to the kind of experiment: Microplate Alamar Blue Assay, Staphylococcus aureus. As to conditions: Staphylococcus aureus, ATCC25923; 200 μg/mL; NI = No inhibition; read-out: Percentage (%) Inhibition, Staphylococcus aureus.
For assay [5], the system named is Escherichia coli (ATCC 12022). As to the kind of experiment: Microplate Alamar Blue Assay, Escherichia coli. Particulars: ATCC12022, 200 μg/mL, NI = No inhibition, read-out: Percentage (%) Inhibition, Escherichia coli. In general terms: The colour change of resazurin is a common sign of viable cells or microbes.
For assay [6], the system named is Pseudomonas aeruginosa (POA 286). As to the kind of experiment: Microplate Alamar Blue Assay, Pseudomonas aeruginosa. Particulars: Pseudomonas aeruginosa; 200 μg/mL; NI = No inhibition; read-out: Percentage (%) Inhibition, Pseudomonas aerugenosa.

Structures are written as SMILES. ≈ marks a conversion by molar mass, not a printed value.

The term IC50 denotes the concentration needed to halve the response being measured. A word on the inhibition: it is the percentage by which the read-out fell short of the control. Take `Cc1cc(C)nc(NS(=O)(=O)c2ccc(NC(=O)c3ccc(F)cc3)cc2)n1` [Compound 12, N-(4-(N-(4,6-dimethylpyrimidin-2-yl)sulfamoyl)phenyl)-4-fluorobenzamide]: the IC50 came out at 10.6 ± 0.5 µg/mL in assay [1] and 9.9 ± 0.2 µg/mL (≈ 24.7 µM) in assay [2]. The inhibition at 200 µg/mL in assay [3] was under 0%; in assay [4], 49.7%; in assay [5], under 0%; in assay [6], under 0%.

`Cc1cc(C)nc(NS(=O)(=O)c2ccc(NC(=O)c3ccc(F)c(C(F)(F)F)c3)cc2)n1` [Compound 10, N-(4-(N-(4,6-dimethylpyrimidin-2-yl)sulfamoyl)phenyl)-4-fluoro-3-(trifluoromethyl)benzamide]: the figures for the 50% inhibitory concentration (IC50) in assay [1] and in assay [2] were 10.6 ± 0.5 µg/mL and 34.5 ± 4.1 µg/mL (≈ 73.6 µM), respectively. Also, the inhibition at 200 µg/mL in assay [3] is under 0%; in assay [4] it was 1.09%; in assay [5], under 0%; in assay [6], under 0%.

As to `Cc1cc(C)nc(NS(=O)(=O)c2ccc(NC(=O)c3cc(F)cc(F)c3)cc2)n1` [Compound 7, N-(4-(N-(4,6-dimethylpyrimidin-2-yl)sulfamoyl)phenyl)-3,5-difluorobenzamide], the concentration for half-maximal inhibition (IC50) in assay [1] was 5.8 ± 0.6 µg/mL; in assay [2] it was 38.9 ± 0.7 µg/mL (≈ 93 µM). The inhibition at 200 µg/mL in assay [3] was under 0%; in assay [4], 54.3%; in assay [5], under 0%; in assay [6] it was under 0%.

For the compound `Cc1cc(C)nc(NS(=O)(=O)c2ccc(NC(=O)c3cccc(CCl)c3)cc2)n1` [Compound 4, 3-(Chloromethyl)-N-(4-(N-(4,6-dimethylpyrimidin-2-yl)sulfamoyl)phenyl)benzamide], the IC50 was 7.3 ± 0.4 µg/mL in assay [1] and under 1 µg/mL in assay [2]. Also, the inhibition at 200 µg/mL in assay [3] was under 0%; in assay [4] it was 3.21%; in assay [5], under 0%; in assay [6], under 0%.

In the case of `Cc1cc(C)nc(NS(=O)(=O)c2ccc(NC(=O)c3cc(F)cc(C(F)(F)F)c3)cc2)n1` [Compound 8, N-(4-(N-(4,6-dimethylpyrimidin-2-yl)sulfamoyl)phenyl)-3-fluoro-5-(trifluoromethyl)benzamide], the results for the concentration for half-maximal inhibition (IC50) in assay [1] and in assay [2] were 4.2 ± 0.2 µg/mL and 9.5 ± 0.4 µg/mL (≈ 20.3 µM), respectively. Besides, the inhibition at 200 µg/mL is under 0% in assay [3], 47.3% in assay [4], under 0% in assay [5] and 4.31% in assay [6].

Regarding `Cc1cc(C)nc(NS(=O)(=O)c2ccc(N)cc2)n1` [compound 1, Sulfamethazine, reference compound], the IC50 in assay [1] is 8.9 ± 1.3 µg/mL; in assay [2] it was over 100 µg/mL. Further, the inhibition at 200 µg/mL in assay [3] is under 0%; in assay [4] it was 42.2%; in assay [5] it was under 0%; in assay [6], 8.92%.

With `Cc1cc(C)nc(NS(=O)(=O)c2ccc(NC(=O)C(Br)CBr)cc2)n1` (stereo not drawn) [Compound 3, 2,3-Dibromo-N-(4-(N-(4,6-dimethylpyrimidin-2-yl)sulfamoyl)phenyl)propanamide], the values for the IC50 in assay [1] and in assay [2] were 6.5 ± 1.3 µg/mL and under 1 µg/mL, respectively. For the same compound, the inhibition at 200 µg/mL in assay [3] is under 0%; in assay [4], 60%; in assay [5] it was under 0%; in assay [6], 5.93%.

For the compound `Cc1cc(C)nc(NS(=O)(=O)c2ccc(NC(=O)c3cccc([N+](=O)[O-])c3)cc2)n1` [Compound 13, N-(4-(N-(4,6-dimethylpyrimidin-2-yl)sulfamoyl)phenyl)-3-nitrobenzamide], the results for the 50% inhibitory concentration (IC50) in assay [1] and in assay [2] were 9.2 ± 0.6 µg/mL and 19.5 ± 1 µg/mL (≈ 45.6 µM), respectively. The inhibition at 200 µg/mL was under 0% in assay [3], 34.3% in assay [4], under 0% in assay [5] and 6.58% in assay [6].

With `Cc1cc(C)nc(NS(=O)(=O)c2ccc(NC(=O)c3ccc(C(F)(F)F)c(F)c3)cc2)n1` [Compound 9, N-(4-(N-(4,6-dimethylpyrimidin-2-yl)sulfamoyl)phenyl)-3-fluoro-4-(trifluoromethyl)benzamide], the IC50 turned out to be 5.7 ± 0.2 µg/mL in assay [1] and 2.1 ± 0.2 µg/mL (≈ 4.48 µM) in assay [2]. The inhibition at 200 µg/mL is under 0% in assay [3], 27.9% in assay [4], under 0% in assay [5] and under 0% in assay [6].

For `Cc1cc(C)nc(NS(=O)(=O)c2ccc(NC(=O)c3cc(C(F)(F)F)cc(C(F)(F)F)c3)cc2)n1` [Compound 6, N-(4-(N-(4,6-dimethylpyrimidin-2-yl)sulfamoyl)phenyl)-3,5-bis(trifluoromethyl)benzamide], the 50% inhibitory concentration (IC50) in assay [1] is 5.7 ± 0.8 µg/mL; in assay [2], under 1 µg/mL. Also, the inhibition at 200 µg/mL in assay [3] was under 0%; in assay [4], 32.7%; in assay [5], under 0%; in assay [6], under 0%.

`Cc1cc(C)nc(NS(=O)(=O)c2ccc(NC(=O)c3ccc(CCl)cc3)cc2)n1` [Compound 5, 4-(Chloromethyl)-N-(4-(N-(4,6-dimethylpyrimidin-2-yl)sulfamoyl)phenyl)benzamide]: the IC50 in assay [1] is 20.5 ± 2.2 µg/mL; in assay [2], under 1 µg/mL. The inhibition at 200 µg/mL in assay [3] is under 0%; in assay [4] it was 35%; in assay [5], under 0%; in assay [6], under 0%.

`Cc1cc(C)nc(NS(=O)(=O)c2ccc(NC(=O)C(C)Cl)cc2)n1` (stereo not drawn) [Compound 11, 2-Chloro-N-(4-(N-(4,6-dimethylpyrimidin-2-yl)sulfamoyl)phenyl)propanamide]: the 50% inhibitory concentration (IC50) was 34.6 ± 1.2 µg/mL in assay [1] and over 100 µg/mL in assay [2]. In addition, the inhibition at 200 µg/mL in assay [3] is 35.1%; in assay [4], under 0%; in assay [5], 3.93%; in assay [6], 26.5%.
